Measurements from patent US20250034182A1, “PHOSPHOLIPID COMPOUNDS AND METHODS OF MAKING AND USING THE SAME” (priority 2021, published 2025).

What was measured:
Format in all cases: cell-based
[1] = tested on: Human Rhinovirus 14 (HRV14) in H1-HeLa cells; assay: H1-HeLa HRV-CTG EC50, HRV14 (Example Z); conditions: Rhinovirus B, HRV14, 96 h, MOI 1.0, 4 days, Celltiter-Glo, read-out: HRV14 HELA EC50 (nM) (per Ex. Z)
Summary of the method: (§1)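 H1-HeLa cells (5,000/well) in DMEM with 2% FBS were infected with HRV1B, HRV14 or HRV16 at MOI 0.5, 1.0 and 0.25, respectively, with 10-point 1:3 compound dilutions. After 4 days at 37 °C, viability was read by CellTiter-Glo luminescence. EC50 was the concentration reducing viral replication by 50%, normalized to rupintrivir and DMSO controls.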

[2] = tested on: Respiratory syncytial virus recombinant with luciferase (RSV-Luc5) in HEp-2 cells; assay: HEp-2 RSV-Luc5 384-well assay (EC50 RSVFLUC Hep2-384 v2, Example V); conditions: human respiratory syncytial virus, HEp-2, 72 h, read-out: RSV Hep-2 FLuc EC50 (v2) (nM) (per Ex. V)
Summary of the method: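 HEp-2 cells (4,000/well) infected with RSV-Luc5 at MOI 0.5 in DMEM/10% FBS with compound, 10-point 1:3 dilutions, 3 days at 37 °C. Replication read by One-Glo luminescence, normalized to remdesivir (0%) and DMSO (100%). EC50 from non-linear regression as concentration giving 50% reduction.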

[3] = tested on: Human Rhinovirus 16 (HRV16) in H1-HeLa cells; assay: H1-HeLa HRV-CTG EC50, HRV16 (Example Z); conditions: Rhinovirus A, HRV16, 96 h, MOI 0.25, 4 days, Celltiter-Glo, read-out: HRV 16 HELA EC50 (nM) (per Ex. Z)
Summary of the method: as §1

[4] = tested on: Human Rhinovirus 1B (HRV1B) in H1-HeLa cells; assay: H1-HeLa HRV-CTG EC50, HRV1B (Example Z); conditions: Rhinovirus A, 96 h, MOI 0.5, 4 days, Celltiter-Glo, read-out: HRV 1B HELA EC50 (nM) (per Ex. Z)
Summary of the method: as §1

[5] = RSV HEP2-CC50-384-V2 (per Ex. V); conditions: human

Row | Structure (SMILES) | EC50 [1] [nM] | EC50 [2] [nM] | EC50 [3] [nM] | EC50 [4] [nM] | CC50 at 3 days [5] [nM]
1 | CCCCCCCCCCCCCCCC[C@@H](COP(=O)(O)OC[C@@]1(C#N)O[C@@H](c2ccc3c(N)ncnn23)[C@H](O)[C@@H]1O)OCc1cc(F)cc(C#N)c1 [Compound 79, ((2R,3S,4R,5S)-5-(4-aminopyrrolo[2,1-f][1,2,4]triazin-7-yl)-2-cyano-3,4-dihydroxytetrahydrofuran-2-yl)methyl ((S)-2-((3-cyano-5-fluorobenzyl)oxy)octadecyl) hydrogen phosphate] | 38 | 1090 | 70 | 25 | 38100
2 | CCCCCCCCCCCCCCC[C@H](COP(=O)(O)OC[C@@]1(C#N)O[C@@H](c2ccc3c(N)ncnn23)[C@H](O)[C@@H]1O)OCc1cc(F)cc(C#N)c1 [Compound 80, ((2R,3S,4R,5S)-5-(4-aminopyrrolo[2,1-f][1,2,4]triazin-7-yl)-2-cyano-3,4-dihydroxytetrahydrofuran-2-yl)methyl ((R)-2-((3-cyano-5-fluorobenzyl)oxy)heptadecyl) hydrogen phosphate] | 88 | 1050 | 111 | 49 | > 50000
